Test results reported in patent US6046239A, “Anthranilic acid analogs” (American Home Products Corporation, priority 1998, dated 2000).

How the values were obtained:
[1] = system: swelling induced chloride channel current; experiment: Chloride channel blockade, swelling induced chloride current in bladder cells; assay type: cell-based, guinea pig; conditions: bladder cell, ICl type swelling (210 mOsm), 60 mV
Text: Normal human bronchial epithelial cells (NHBE) were commercially available from Clonetics Corporation (San Diego, Calif.) and bladder cells were isolated from rat bladder.
The normal external solution contained (in mM): N-methyl d-Glucamine chloride (NMDGCl). 140, MgCl2 2, CaCl2 2 and 4-(2-hydroxyethyl)-1-piperazine ethanesulfonic acid (HEPES) 10. The normal pipette solution contained (in mM): NMDGCl. 125, HEPES 10, MgCl2 2, ethylenebis(oxonitrilo)tetaaacetate (EGTA) 2, and ATPMg 5, the pH adjusted to 7.3 with TRIS. To identify the leak conductance from depolarization, internal Cl ion concentration was reduced to 40 mM using glutamic acid (ECl approximately -31 mV according Nernst equation). The osmolarity for standard external solution was about 280 mOsm. Hypotonic solutions were obtained by diluting the normal external solution with distilled water.
The whole cell voltage clamp recording techniques were utilized to record membrane ionic currents. The volume of the recording chamber was 1 ml and the rate of superfusion was 4 ml/min. Membrane currents were recorded using an Axopatch 200A Patch Clamp Amplifier (Axon Instruments, Inc., Foster City, Calif.). Under voltage clamp conditions, the cells were stimulated at 0.2 Hz to be sure channels were completely recovered between two voltage steps. […]

[2] = target: T1, calcium-dependent large conductance potassium channels (maxi K^+) (Rattus norvegicus, UniProt Q62976); experiment: Potassium channel activation, whole cell patch clamp in isolated rat detrusor cells; assay type: cell-based; conditions: 10 μM in superfusate; isolated rat bladder cells
T1 construct: endogenous in cells; host or cells: freshly isolated rat detrusor (urinary bladder smooth muscle) cells
T1 sequence (Q62976 whole entry): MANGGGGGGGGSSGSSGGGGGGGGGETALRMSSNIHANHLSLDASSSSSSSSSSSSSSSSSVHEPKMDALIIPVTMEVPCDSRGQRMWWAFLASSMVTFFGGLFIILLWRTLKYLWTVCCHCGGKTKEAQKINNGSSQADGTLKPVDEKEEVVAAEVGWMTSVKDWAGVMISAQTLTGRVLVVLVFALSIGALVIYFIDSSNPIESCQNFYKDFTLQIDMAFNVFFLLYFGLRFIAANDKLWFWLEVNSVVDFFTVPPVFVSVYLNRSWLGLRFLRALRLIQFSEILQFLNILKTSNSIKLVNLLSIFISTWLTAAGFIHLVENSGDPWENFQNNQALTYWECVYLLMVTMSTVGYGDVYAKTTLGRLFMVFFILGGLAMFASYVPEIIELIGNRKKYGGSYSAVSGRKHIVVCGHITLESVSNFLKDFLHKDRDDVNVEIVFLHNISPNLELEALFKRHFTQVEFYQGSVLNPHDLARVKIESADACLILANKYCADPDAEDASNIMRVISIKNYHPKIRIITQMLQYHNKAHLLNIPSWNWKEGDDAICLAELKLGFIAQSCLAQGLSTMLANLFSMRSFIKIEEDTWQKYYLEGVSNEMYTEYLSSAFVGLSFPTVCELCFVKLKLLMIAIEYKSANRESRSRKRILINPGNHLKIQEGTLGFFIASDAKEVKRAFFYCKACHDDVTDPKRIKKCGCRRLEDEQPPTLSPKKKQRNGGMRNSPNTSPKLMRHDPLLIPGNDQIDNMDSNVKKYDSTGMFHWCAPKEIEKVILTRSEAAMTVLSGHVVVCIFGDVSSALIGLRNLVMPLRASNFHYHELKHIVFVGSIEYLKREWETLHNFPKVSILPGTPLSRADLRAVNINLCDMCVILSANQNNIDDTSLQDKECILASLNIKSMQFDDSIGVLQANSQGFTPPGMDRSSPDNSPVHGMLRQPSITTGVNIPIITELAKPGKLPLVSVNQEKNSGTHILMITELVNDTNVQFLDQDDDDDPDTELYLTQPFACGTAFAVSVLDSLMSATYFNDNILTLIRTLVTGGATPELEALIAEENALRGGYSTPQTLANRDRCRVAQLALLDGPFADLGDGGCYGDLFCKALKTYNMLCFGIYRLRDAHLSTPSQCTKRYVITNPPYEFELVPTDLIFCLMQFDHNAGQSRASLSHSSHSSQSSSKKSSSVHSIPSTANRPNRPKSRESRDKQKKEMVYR
T1 sequence (P97678 whole entry partner): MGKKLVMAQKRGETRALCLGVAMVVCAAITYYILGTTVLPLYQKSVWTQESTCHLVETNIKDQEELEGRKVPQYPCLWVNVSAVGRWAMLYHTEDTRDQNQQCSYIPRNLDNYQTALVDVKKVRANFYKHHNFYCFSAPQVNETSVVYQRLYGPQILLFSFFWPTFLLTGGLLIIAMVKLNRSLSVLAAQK
Method: Potassium channel activation by compounds of the present invention was established by examining the effect of the compound of Example 1 on calcium-dependent large conductance potassium channels (maxi K^+) as follows:
Rat detrusor cells were isolated in a manner previously described for guinea-pig detrusor (Sheldon and Argentieri, 1995). Male Sprague-Dawley rats (200-400 grams) were euthanized by CO2 inhalation and exsanguination. Their urinary bladders were rapidly removed and placed in 37° C. physiological solution with the following composition (mM): Na glutamate (80.0), NaCl (54.7), KCl (5.0), NaHCO3 (25.0), MgCl2.2H2 O (2.5), D-glucose (11.8) and CaCl2 (0.2) gassed with CO2 --O2, 95%/5% for a final pH of 7.4. The dome of the bladder was isolated from the trigon region and the mucosa was removed. This tissue was then cut into 2-3 mm wide strips and placed in fresh buffer for 1 hour. Tissues were then transferred into 10.0 ml of an isolation buffer containing the above composition plus collagenase type VIII (1.0 mg/ml) and pronase (0.25 mg/ml). After 10 minutes the isolation buffer was replaced with fresh isolation buffer for an additional 10 min. […]
Whole cell recordings were made using broken patch assess. […] After stability was achieved control currents were recorded. […] Currents were recorded for 5 to 10 minutes or until compound effects reached steady state. […]

Aorta = experiment: Inhibition of contractions in aorta (indication of selectivity); assay type: cell-based
[3] = system: Isolated Rat Bladder Strips; experiment: Inhibition of contractions in isolated rat bladder strips; assay type: cell-based
Method: Sprague-Dawley rats (150-200 g) are rendered unconscious by CO2 asphyxiation and then euthanized by cervical dislocation. […] The bladder is opened and then cut into strips 1-2 mm in width and 7-10 mm in length. The strips are subsequently suspended in a 10 mL tissue bath under an initial resting tension of 1.5 g. The strips are held in place by two surgical clips one of which is attached to a fixed hook while the other is attached to an isometric force transducer. […] The carbachol is then washed out and the tissue allowed to relax to its resting level of activity. Following a further 30 min period of recovery an additional 15 mM KCl are introduced into the tissue bath. […] Following stabilization of this enhanced level of contractile activity, incremental increases in the concentration of test compound or vehicle are introduced into the tissue bath. Contractile activity is measured for each compound or vehicle concentration during the last minute of a 30 minute challenge.

C/C(=C\c1ccc(C(F)(F)F)cc1)C(=O)Nc1ccccc1C(=O)[O-].[Li+] [Example 1, Step 4, (E)-2-[2-Methyl-3-(4-trifluoromethyl-phenyl)-acryloylamino]-benzoic acid lithium salt]
% blockade 20 μM [1]: 67%
effect on outward current [2]: increase in outward current that was reversible upon washout
IC50 (Aorta): 41.9 ± 8.4 µM
IC50 ([3]; contractions enhanced by additional 15 mM KCl, isolated rat bladder strips, read-out: IC50 /μM Bladder (B)): 1.07 ± 0.37 µM
IC50 (A)/ IC50 (B) ([3]; ratio aorta/bladder, indication of selectivity): 39.6
